Laboratory results as given in patent publication US9796711B2, “Substituted pyrazolo[3,4-b]pyridin-6-carboxylic acids and method of use” (AbbVie S.àr.l., priority 2015, dated 2017).

Biological target: T1, ΔF508-CFTR (Homo sapiens, UniProt P13569, DEL508-508)
T1 construct: host or cells: CFBE41o-, doxycycline-inducible
Assay: CFTR cell surface levels using HRP-tagged ΔF508-CFTR expressing CFBE cells, in the presence of a co-corrector
Format: cell-based
Settings: HRP-tagged ΔF508-CFTR expressing CFBE cells, in the presence of 3 μM co-corrector; for EC50: read-out: EC50
From the text: Measuring CFTR Cell Surface Levels Using HRP-Tagged AF508-CFTR Expressing CFBE Cells
The HRP-tagged AF508-CFTR cell assay measures the expression of CFTR-ΔF508 at the plasma membrane. CFTR-ΔF508 has a folding defect leading to absence of protein at the plasma membrane. This assay is used to evaluate the capacity of compounds to increase the expression of CFTR-ΔF508 at the plasma membrane. The CFTR-ΔF508 is tagged with HRP (horse radish peroxidase enzyme) within the ECL4 (Extracellular loop 4) of CFTR (Phuan, P.-W. et al. Synergy-based small-molecule screen using a human lung epithelial cell line yields AF508-CFTR correctors that augment VX-809 maximal efficacy. Mol. Pharmacol. 86, 42-51 (2014)). When HRP-tagged AF508-CFTR is present at the plasma membrane, the HRP enzyme activity can be measured. The amount of CFTR-ΔF508 that can be rescued to the plasma membrane is correlated with the amount of functional enzyme that can be measured.
There are several ways to measure the capacity of compounds to rescue CFTR-ΔF508 to the plasma membrane; either compounds are evaluated on their own and the impact on plasma membrane levels is measured or compounds are evaluated in combination with a co-corrector, i.e. a compound that rescues CFTR-ΔF508 to the plasma membrane but rescue can be enhanced by addition of compounds due to a complementary mode of action.
Activity of Compounds in Combination with Co-Corrector:
For this purpose doxycycline-inducible AF508-CFTR-HRP expressing CFBE4lo-cells (obtained from Gergely Lukacs, McGill University) were maintained in MEM (Minimum Essential Medium, Gibco; 31095) supplemented with 10% fetal bovine serum (Hyclone; SV30160.03) under puromycin (3 μg/mL) and G418 selection (0.2 mg/mL). For compound testing, cells were seeded at 4000 cells/well in white 384-well plates (Greiner; 781080) in 50 μL of medium containing 0.5 μg/mL doxycycline and incubated for 68 hours at 37° C., 5% CO2. On day four, 10 μL of test compounds diluted in PBS (phosphate buffered saline) were added to the plates at a final DMSO concentration of 0.1%. In order to measure compound synergy with a co-corrector, 3 μM co-corrector (3-[(2R,4R)-4-({[1-(2,2-difluoro-1,3-benzodioxol-5-yl)cyclopropyl]carbonyl}amino)-7-methoxy-3,4-dihydro-2H-chromen-2-yl]benzoic acid) was added along with test compounds. All compound plates contained negative controls (DMSO) and positive controls (3 μM co-corrector). Cell plates were incubated at 33° C., 5% CO2 for 20 hours. On day five, the cells were washed five times with phosphate-buffered saline, and HRP activity was assayed by the addition of 50 μL/well of HRP substrate (SuperSignal™ West Pico Chemiluminescent Substrate, Thermo Scientific; 34080). After incubation for 15 minutes in the dark, the chemiluminescence was measured using a plate reader (EnVision®, Perkin Elmer). Raw data were normalized to percentage activity values using the equation: 100×(Sample−Negative control)/(Positive control−Negative Control).

T1 sequence (P13569 with tags, fused parts or gaps DEL508-508): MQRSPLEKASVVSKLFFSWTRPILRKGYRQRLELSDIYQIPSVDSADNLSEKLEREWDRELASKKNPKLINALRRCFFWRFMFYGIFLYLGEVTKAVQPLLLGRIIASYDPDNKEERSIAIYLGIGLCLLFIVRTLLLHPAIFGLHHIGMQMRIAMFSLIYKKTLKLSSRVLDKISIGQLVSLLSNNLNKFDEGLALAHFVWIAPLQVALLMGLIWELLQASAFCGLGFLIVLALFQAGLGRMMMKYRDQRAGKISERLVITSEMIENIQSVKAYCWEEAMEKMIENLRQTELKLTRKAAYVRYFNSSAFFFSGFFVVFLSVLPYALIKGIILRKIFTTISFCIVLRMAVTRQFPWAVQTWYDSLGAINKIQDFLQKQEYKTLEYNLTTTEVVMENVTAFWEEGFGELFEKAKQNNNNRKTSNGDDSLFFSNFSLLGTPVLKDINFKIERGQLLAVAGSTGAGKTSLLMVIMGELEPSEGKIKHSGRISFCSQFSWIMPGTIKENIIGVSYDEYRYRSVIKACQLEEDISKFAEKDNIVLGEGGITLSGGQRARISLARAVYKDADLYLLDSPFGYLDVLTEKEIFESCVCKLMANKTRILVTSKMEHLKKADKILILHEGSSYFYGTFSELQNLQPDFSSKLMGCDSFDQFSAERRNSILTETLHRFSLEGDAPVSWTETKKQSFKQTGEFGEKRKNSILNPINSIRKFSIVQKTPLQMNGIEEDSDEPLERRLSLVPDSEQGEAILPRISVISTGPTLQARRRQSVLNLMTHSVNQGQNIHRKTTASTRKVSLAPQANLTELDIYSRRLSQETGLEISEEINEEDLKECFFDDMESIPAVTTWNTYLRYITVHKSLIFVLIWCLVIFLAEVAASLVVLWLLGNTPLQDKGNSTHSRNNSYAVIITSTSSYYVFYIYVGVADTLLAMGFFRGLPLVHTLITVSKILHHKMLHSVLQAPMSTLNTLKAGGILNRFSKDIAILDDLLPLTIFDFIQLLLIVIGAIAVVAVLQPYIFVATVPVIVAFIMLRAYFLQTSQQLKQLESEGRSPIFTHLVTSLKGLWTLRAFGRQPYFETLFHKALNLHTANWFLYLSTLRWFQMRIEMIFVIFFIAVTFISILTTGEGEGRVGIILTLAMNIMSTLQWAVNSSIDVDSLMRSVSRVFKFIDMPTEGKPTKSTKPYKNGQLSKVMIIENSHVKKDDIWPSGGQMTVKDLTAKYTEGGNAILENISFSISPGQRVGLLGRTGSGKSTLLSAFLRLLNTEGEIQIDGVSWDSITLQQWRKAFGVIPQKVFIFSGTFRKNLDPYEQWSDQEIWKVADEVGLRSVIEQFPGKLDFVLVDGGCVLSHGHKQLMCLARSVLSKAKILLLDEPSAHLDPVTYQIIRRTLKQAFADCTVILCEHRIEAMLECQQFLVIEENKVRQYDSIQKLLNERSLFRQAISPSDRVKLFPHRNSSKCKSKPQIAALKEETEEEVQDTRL

## CC(C)N1CCCN(c2cc(C(=O)O)nc3c2c(C2CCC2)nn3-c2ccccc2)CC1 [compound 691, 3-cyclobutyl-1-phenyl-4-[4-(propan-2-yl)-1,4-diazepan-1-yl]-1H-pyrazolo[3,4-b]pyridine-6-carboxylic acid]
  % Activation: 280.7%
  EC50: 5000 nM

## CN1CCN(CCC2CCN(c3cc(C(=O)O)nc4c3c(C3CCC3)nn4-c3ccccc3)CC2)CC1 [compound 695, 3-cyclobutyl-4-{4-[2-(4-methylpiperazin-1-yl)ethyl]piperidin-1-yl}-1-phenyl-1H-pyrazolo[3,4-b]pyridine-6-carboxylic acid]
  % Activation: 385.5%
  EC50: 119 nM

## CCOCC(=O)N1CCN(c2cc(C(=O)O)nc3c2c(C2CCC2)nn3-c2ccccc2)CC1 [compound 696, 3-cyclobutyl-4-[4-(ethoxyacetyl)piperazin-1-yl]-1-phenyl-1H-pyrazolo[3,4-b]pyridine-6-carboxylic acid]
  % Activation: 346.8%
  EC50: 1670 nM

## O=C(O)c1cc(N2CCC[C@@H](N3CCCC3=O)C2)c2c(C3CCC3)nn(-c3ccccc3)c2n1 [compound 697, 3-cyclobutyl-4-[(3R)-3-(2-oxopyrrolidin-1-yl)piperidin-1-yl]-1-phenyl-1H-pyrazolo[3,4-b]pyridine-6-carboxylic acid]
  % Activation: 217.3%
  EC50: 1270 nM

## CC1(N2CCCCC2)CCN(c2cc(C(=O)O)nc3c2c(C2CCC2)nn3-c2ccccc2)CC1 [compound 698, 3-cyclobutyl-4-(4′-methyl [1,4′-bipiperidin]-1′-yl)-1-phenyl-1H-pyrazolo[3,4-b]pyridine-6-carboxylic acid]
  % Activation: 242.7%
  EC50: 745 nM

## O=C(O)c1cc(N2CCC3(CC2)OCCO3)c2c(C3CCC3)nn(-c3ccccc3)c2n1 [compound 700, 3-cyclobutyl-4-(1,4-dioxa-8-azaspiro[4.5]decan-8-yl)-1-phenyl-1H-pyrazolo[3,4-b]pyridine-6-carboxylic acid]
  % Activation: 290.9%
  EC50: 128 nM

## CC(C)COC(=O)N1CCN(c2cc(C(=O)O)nc3c2c(C2CCC2)nn3-c2ccccc2)CC1 [compound 701, 3-cyclobutyl-4-{4-[(2-methylpropoxy)carbonyl]piperazin-1-yl}-1-phenyl-1H-pyrazolo[3,4-b]pyridine-6-carboxylic acid]
  % Activation: 498.5%
  EC50: 36.1 nM

## CN1CCCN(c2cc(C(=O)O)nc3c2c(C2CCC2)nn3-c2ccccc2)CC1 [compound 702, 3-cyclobutyl-4-(4-methyl-1,4-diazepan-1-yl)-1-phenyl-1H-pyrazolo[3,4-b]pyridine-6-carboxylic acid]
  % Activation: 214.1%
  EC50: 1670 nM

## CC(=O)N1CCN(c2cc(C(=O)O)nc3c2c(C2CCC2)nn3-c2ccccc2)CC1 [compound 703, 4-(4-acetylpiperazin-1-yl)-3-cyclobutyl-1-phenyl-1H-pyrazolo[3,4-b]pyridine-6-carboxylic acid]
  % Activation: 374.6%
  EC50: 386 nM

## COCCCN1CCN(c2cc(C(=O)O)nc3c2c(C2CCC2)nn3-c2ccccc2)CC1 [compound 704, 3-cyclobutyl-4-[4-(3-methoxypropyl)piperazin-1-yl]-1-phenyl-1H-pyrazolo[3,4-b]pyridine-6-carboxylic acid]
  % Activation: 344.1%
  EC50: 409 nM

## O=C(O)c1cc(N2CCCN(C3CCCC3)CC2)c2c(C3CCC3)nn(-c3ccccc3)c2n1 [compound 705, 3-cyclobutyl-4-(4-cyclopentyl-1,4-diazepan-1-yl)-1-phenyl-1H-pyrazolo[3,4-b]pyridine-6-carboxylic acid]
  % Activation: 249.8%
  EC50: 1670 nM

## O=C(O)c1cc(N2CCC[C@@H](O)C2)c2c(C3CCC3)nn(-c3ccccc3)c2n1 [compound 706, 3-cyclobutyl-4-[(3R)-3-hydroxypiperidin-1-yl]-1-phenyl-1H-pyrazolo[3,4-b]pyridine-6-carboxylic acid]
  % Activation: 284.4%
  EC50: 488 nM

## CCCN1CCN(c2cc(C(=O)O)nc3c2c(C2CCC2)nn3-c2ccccc2)CC1 [compound 707, 3-cyclobutyl-1-phenyl-4-(4-propylpiperazin-1-yl)-1H-pyrazolo[3,4-b]pyridine-6-carboxylic acid]
  % Activation: 326.3%
  EC50: 341 nM

## CN(C)C(=O)N1CCN(c2cc(C(=O)O)nc3c2c(C2CCC2)nn3-c2ccccc2)CC1 [compound 708, 3-cyclobutyl-4-[4-(dimethylcarbamoyl)piperazin-1-yl]-1-phenyl-1H-pyrazolo[3,4-b]pyridine-6-carboxylic acid]
  % Activation: 314.8%
  EC50: 147 nM

## O=C(O)c1cc(N2CC(N3CCOCC3)C2)c2c(C3CCC3)nn(-c3ccccc3)c2n1 [compound 709, 3-cyclobutyl-4-[3-(morpholin-4-yl)azetidin-1-yl]-1-phenyl-1H-pyrazolo[3,4-b]pyridine-6-carboxylic acid]
  % Activation: 223.9%
  EC50: 1670 nM

## CCCCN1CCCN(c2cc(C(=O)O)nc3c2c(C2CCC2)nn3-c2ccccc2)CC1 [compound 710, 4-(4-butyl-1,4-diazepan-1-yl)-3-cyclobutyl-1-phenyl-1H-pyrazolo[3,4-b]pyridine-6-carboxylic acid]
  % Activation: 282.6%
  EC50: 1350 nM

## O=C(O)c1cc(N2CCC(N3CCCC(C(=O)N4CCOCC4)C3)CC2)c2c(C3CCC3)nn(-c3ccccc3)c2n1 (stereo not drawn) [compound 711, 3-cyclobutyl-4-[3-(morpholine-4-carbonyl)[1,4′-bipiperidin]-1′-yl]-1-phenyl-1H-pyrazolo[3,4-b]pyridine-6-carboxylic acid]
  % Activation: 248.8%
  EC50: 1110 nM

## CCCN1CCCN(c2cc(C(=O)O)nc3c2c(C2CCC2)nn3-c2ccccc2)CC1 [compound 712, 3-cyclobutyl-1-phenyl-4-(4-propyl-1,4-diazepan-1-yl)-1H-pyrazolo[3,4-b]pyridine-6-carboxylic acid]
  % Activation: 242.9%
  EC50: 608 nM

## O=C(O)c1cc(N2CCC3(C2)OCCO3)c2c(C3CCC3)nn(-c3ccccc3)c2n1 [compound 713, 3-cyclobutyl-4-(1,4-dioxa-7-azaspiro[4.4]nonan-7-yl)-1-phenyl-1H-pyrazolo[3,4-b]pyridine-6-carboxylic acid]
  % Activation: 243.5%
  EC50: 659 nM

## O=C(O)c1cc(N2CCN(CCOCCO)CC2)c2c(C3CCC3)nn(-c3ccccc3)c2n1 [compound 714, 3-cyclobutyl-4-{4-[2-(2-hydroxyethoxy)ethyl]piperazin-1-yl}-1-phenyl-1H-pyrazolo[3,4-b]pyridine-6-carboxylic acid]
  % Activation: 212.5%
  EC50: 1410 nM

## O=C(O)c1cc(N2CC[C@@H](N3CCCCC3)C2)c2c(C3CCC3)nn(-c3ccccc3)c2n1 [compound 715, 3-cyclobutyl-1-phenyl-4-[(3R)-3-(piperidin-1-yl)pyrrolidin-1-yl]-1H-pyrazolo[3,4-b]pyridine-6-carboxylic acid]
  % Activation: 261.4%
  EC50: 1270 nM

## N#CC1COC2(C1)CN(c1cc(C(=O)O)nc3c1c(C1CCC1)nn3-c1ccccc1)C2 (stereo not drawn) [compound 716, 4-(7-cyano-5-oxa-2-azaspiro[3.4]octan-2-yl)-3-cyclobutyl-1-phenyl-1H-pyrazolo[3,4-b]pyridine-6-carboxylic acid]
  % Activation: 282.9%
  EC50: 772 nM

## CN1CCCN(C(=O)CCN2CCN(c3cc(C(=O)O)nc4c3c(C3CCC3)nn4-c3ccccc3)CC2)CC1 [compound 717, 3-cyclobutyl-4-{4-[3-(4-methyl-1,4-diazepan-1-yl)-3-oxopropyl]piperazin-1-yl}-1-phenyl-1H-pyrazolo[3,4-b]pyridine-6-carboxylic acid]
  % Activation: 124.6%
  EC50: 5000 nM

## CN(C)C(=O)C1(N2CCCC2=O)CCN(c2cc(C(=O)O)nc3c2c(C2CCC2)nn3-c2ccccc2)CC1 [compound 718, 3-cyclobutyl-4-[4-(dimethylcarbamoyl)-4-(2-oxopyrrolidin-1-yl)piperidin-1-yl]-1-phenyl-1H-pyrazolo[3,4-b]pyridine-6-carboxylic acid]
  % Activation: 209.8%
  EC50: 1670 nM
